Tests used:
A549 = assay: Anti-proliferative activity, cell-titre luminescent viability assay; assay type: cell-based; conditions: Homo sapiens, A549, 72 h, 0.03, 0.3, 3 and 30 μM, linear regression of semi-log plots, read-out: IC50 Lung (NSLC) A549
Procedure, shortened: (§1)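 Cells were seeded at pre-determined densities, cultured 24 hours at 37° C/5% CO2, then exposed 72 hours to compound at 0.03, 0.3, 3 and 30 μM or at 0.1, 0.3, 1, 3, 10 and 30 μM. Viability was read by cell-titre luminescence after 30 min, normalized to untreated control, and IC50 or EC50 derived.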

CaCo2 = assay: as above; assay type: cell-based; conditions: Homo sapiens, Caco-2, 72 h, 0.03, 0.3, 3 and 30 μM, linear regression of semi-log plots, read-out: IC50 Colorectal CaCo2
Procedure, shortened: as §1

DU145 = assay: as above; assay type: cell-based; conditions: Homo sapiens, DU-145, 72 h, 0.03, 0.3, 3 and 30 μM, linear regression of semi-log plots, read-out: IC50 Prostate DU145
Procedure, shortened: as §1

MDA-MB-231 = assay: as above; assay type: cell-based; conditions: Homo sapiens, MDA-MB-231, 72 h, 0.03, 0.3, 3 and 30 μM, linear regression of semi-log plots, read-out: IC50 Breast MDA-MB-231
Procedure, shortened: as §1

PC3 = assay: as above; assay type: cell-based; conditions: Homo sapiens, PC-3, 72 h, 0.03, 0.3, 3 and 30 μM, linear regression of semi-log plots, read-out: IC50 Prostate PC3
Procedure, shortened: as §1

SK-Mel-28 = assay: as above; assay type: cell-based; conditions: Homo sapiens, SK-MEL-28; 72 hours; 0.03, 0.3, 3 and 30 μM; linear regression of semi-log plots; read-out: IC50 Melanoma SK-Mel-28
Procedure, shortened: as §1

SK-N-SH = assay: as above; assay type: cell-based; conditions: Homo sapiens, SK-N-SH, 72 h, 0.03, 0.3, 3 and 30 μM, linear regression of semi-log plots, read-out: IC50 Neuroblastoma SK-N-SH
Procedure, shortened: as §1

CHLA-20 = assay: Anti-proliferative activity, MTS viability assay; assay type: cell-based; conditions: 72 hours exposure, read-out: IC50 Neuroblastoma CHLA-20
Method: (§2) The anti-proliferative activity of compound 3507 was further evaluated in cell lines representative of melanoma, prostate cancer, leukaemia and neuroblastoma. Cell viability after 72 hours exposure to increasing concentrations of compound 3507 was measured using an MTS viability assay. Cell viability was normalized to control (vehicle alone) and dose-response curves, and relative inhibitory concentration (IC50) values were determined using GraphPad Prism 6.

CHLA-90 = assay: Anti-proliferative activity, MTS viability assay; assay type: cell-based; conditions: 72 hours exposure, read-out: IC50 Neuroblastoma CHLA-90
Method: as §2

CHP-134 = assay: Anti-proliferative activity, MTS viability assay; assay type: cell-based; conditions: Homo sapiens, 72 hours exposure, read-out: IC50 Neuroblastoma CHP-134
Method: as §2

D20 = assay: Anti-proliferative activity, MTS viability assay; assay type: cell-based; conditions: 72 hours exposure, read-out: IC50 Melanoma D20
Method: as §2

HL-60 = assay: Anti-proliferative activity, MTS viability assay; assay type: cell-based; conditions: Homo sapiens, 72 hours exposure, read-out: IC50 Leukemia HL-60
Method: as §2

K562 = assay: Anti-proliferative activity, MTS viability assay; assay type: cell-based; conditions: Homo sapiens, 72 hours exposure, read-out: IC50 Leukemia K562
Method: as §2

LNCaP = assay: Anti-proliferative activity, MTS viability assay; assay type: cell-based; conditions: Homo sapiens, 72 hours exposure, read-out: IC50 Prostate LNCaP
Method: as §2

MM329 = assay: Anti-proliferative activity, MTS viability assay; assay type: cell-based; conditions: 72 hours exposure, read-out: IC50 Melanoma MM329
Method: as §2

MM96L = assay: Anti-proliferative activity, MTS viability assay; assay type: cell-based; conditions: Homo sapiens, 72 hours exposure, read-out: IC50 Melanoma MM96L
Method: as §2

P4E6 = assay: Anti-proliferative activity, MTS viability assay; assay type: cell-based; conditions: 72 hours exposure, read-out: IC50 Prostate P4E6
Method: as §2

SKMEL13 = assay: Anti-proliferative activity, MTS viability assay; assay type: cell-based; conditions: 72 hours exposure, read-out: IC50 Melanoma SKMEL13
Method: as §2

A375 tumours = assay: Human melanoma (A375) xenograft model; assay type: in vivo; conditions: 60 mg/kg intravenously twice a week
Method: FIG. 5: Compound 3507/30% w/v Dexolve-7 was administered IV 2×/week at 60 mg/kg for 14 days in a flank xenograft model of melanoma (A375). Tumour volume was measured every 2-3 days. ** p<0.01.
The in vivo efficacy of 3507 was also evaluated in a human melanoma (A375) xenograft model. A375 tumours were established in female Foxn-1 nu/nu athymic mice by injecting approximately five million cells subcutaneously in the right flank region of the animal. When the tumours reached 130-150 mm^3 the animals were randomized into four groups, (n=8 or 12 animals/group) so that the average tumour volume of all the groups was same. Group 1 received vehicle (30% w/v Dexolve-7 in sterile water) twice a week intravenously, and Group 2 was dosed with 3507/Dexolve-7 at 60 mg/kg, twice a week intravenously. Tumours and body weight was measured two to three times in a week. In addition, throughout the study period mice were monitored daily for clinical condition.

## Cc1c(C)n(CCCN2CCN(C)CC2)c2ccc(Oc3cccc(C(=O)N4CCN(CCc5ccc(F)cc5)CC4)c3)cc12 [Compound 3507, (3-((2,3-dimethyl-1-(3-(4-methylpiperazin-1-yl)propyl)-1H-indol-5-yl)oxy)phenyl)(4-(4-fluorophenethyl)piperazin-1-yl)methanone]
A549
  IC50: 1.2 µM
CaCo2
  IC50: 2.5 µM
DU145
  IC50: 1.3 µM
MDA-MB-231
  IC50: 1.4 µM
PC3
  IC50: 1.2 µM
SK-Mel-28
  IC50: 1 µM
SK-N-SH
  IC50: 1.4 µM
CHLA-20
  IC50: 6.9 µM
CHLA-90
  IC50: 4.24 µM
CHP-134
  IC50: 7.2 µM
D20
  IC50: 5.01 µM
HL-60
  IC50: 1.16 µM
K562
  IC50: 0.95 µM
LNCaP
  IC50: 0.59 µM
MM329
  IC50: 3.8 µM
MM96L
  IC50: 3.27 µM
P4E6
  IC50: 0.87 µM
SKMEL13
  IC50: 3.72 µM
A375 tumours
  tolerability: well tolerated
A375 tumours; after 14 days treatment
  reduction of melanoma tumour growth compared to vehicle control: ~60%
A375 tumours; throughout the study period
  body weights: comparable to the control group

— patent US20170152226A1, “FUNCTIONALISED AND SUBSTITUTED INDOLES AS ANTI-CANCER AGENTS” (Novogen Ltd., priority 2014, published 2017)
